# Source: article PMC8421423, “Cellular model system to dissect the isoform-selectivity of Akt inhibitors” (Nature Communications, 2021)
# Values joined by “and” are separate entries in the source; they are usually repeats but may differ in a detail not shown here. Equal values may be shown once. Read-outs that look alike come from different tables or passages of the source.
# Columns and labels:
# parental Ba/F3 cells = experiment: CellTiter-Glo cell viability assay; assay type: cell-based, murine
# Ba/F3^myr-Akt1 cells = experiment: CellTiter-Glo cell viability assay; details: for Log ratio EC50 [Akt] / EC50 [Akt], Akt1 / Akt2: cell viability assay Ba/F3 myr-Akt cells, log units
# Ba/F3^myr-Akt2 cells = experiment: CellTiter-Glo cell viability assay
# Ba/F3^myr-Akt3 cells = experiment: CellTiter-Glo cell viability assay; details: for Log ratio EC50 [Akt] / EC50 [Akt], Akt3 / Akt2: cell viability assay Ba/F3 myr-Akt cells, log units
# Method: On day 0, cells were plated into white 384-well cell culture plates (Greiner Bio-One) using a Multidrop reagent dispenser (Thermo Fisher Scientific) at cell numbers that ensure linear and optimal luminescent signal intensity (Ba/F3myr-Akt1: 600 cells/well, Ba/F3myr-Akt2: 800 cells/well, Ba/F3myr-Akt3: 800 cells/well). […] Cell viability was analyzed on day 4 using the CellTiter-Glo Assay (Promega) as per the manufacturer’s instructions. […] All experimental points were measured in duplicates for each plate and were replicated in at least three plates.
# Akt1 = Akt1 (Homo sapiens, UniProt P31749); experiment: STK HTRF KinEASE activity-based assay (IC50); details: for Log ratio IC50 [Akt] / IC50 [Akt], Akt1 / Akt2: biochemical activity based assay, log units
# Sequence of Akt1 (P31749 whole entry): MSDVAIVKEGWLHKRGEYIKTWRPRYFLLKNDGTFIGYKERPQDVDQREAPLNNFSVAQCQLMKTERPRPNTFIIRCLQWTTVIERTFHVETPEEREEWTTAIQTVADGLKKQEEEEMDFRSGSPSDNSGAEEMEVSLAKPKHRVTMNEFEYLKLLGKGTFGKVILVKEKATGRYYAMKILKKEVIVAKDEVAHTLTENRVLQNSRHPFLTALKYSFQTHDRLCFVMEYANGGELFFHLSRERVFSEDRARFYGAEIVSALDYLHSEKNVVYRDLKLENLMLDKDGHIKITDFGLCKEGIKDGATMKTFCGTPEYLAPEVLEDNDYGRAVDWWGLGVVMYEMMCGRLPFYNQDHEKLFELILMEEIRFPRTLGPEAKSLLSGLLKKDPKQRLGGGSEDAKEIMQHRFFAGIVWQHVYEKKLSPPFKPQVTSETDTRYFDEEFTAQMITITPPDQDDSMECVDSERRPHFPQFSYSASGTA
# Akt2 = Akt2 (Homo sapiens, UniProt P31751); experiment: STK HTRF KinEASE activity-based assay (IC50)
# Sequence of Akt2 (P31751 whole entry): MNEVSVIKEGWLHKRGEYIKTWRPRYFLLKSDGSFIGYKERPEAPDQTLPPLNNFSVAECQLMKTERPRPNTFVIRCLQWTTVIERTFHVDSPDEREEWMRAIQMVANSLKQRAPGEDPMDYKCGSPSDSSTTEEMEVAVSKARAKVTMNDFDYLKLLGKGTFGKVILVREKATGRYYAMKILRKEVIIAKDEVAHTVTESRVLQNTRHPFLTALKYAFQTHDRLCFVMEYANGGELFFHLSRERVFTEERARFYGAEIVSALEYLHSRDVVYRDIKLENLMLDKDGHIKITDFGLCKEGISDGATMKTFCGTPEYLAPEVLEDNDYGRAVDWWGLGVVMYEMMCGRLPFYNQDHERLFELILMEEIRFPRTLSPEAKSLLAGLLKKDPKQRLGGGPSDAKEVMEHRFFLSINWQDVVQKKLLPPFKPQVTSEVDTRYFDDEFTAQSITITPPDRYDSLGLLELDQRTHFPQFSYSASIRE
# Method: The biochemical half maximal inhibitory concentrations (IC50) were determined with the STK HTRF KinEASE assay (Cisbio) according to the manufactor’s instructions. Briefly: 5 µL Kinase solution and 2.5 µL inhibitor solution (8% DMSO in HTRF buffer) were incubated for 1 h before the reaction was started by addition of 2.5 µL starting solution containing ATP and substrate peptide. […] After reaction completion (Akt1: 60 min, Akt2: 20 min, Akt3: 15 min), 10 µL of stop solution were added. […] The quotient of both intensities were recorded at eight different inhibitor concentrations and data fit to a Hill 4-parameter equation with Quattro software suite (Quattro Research GmbH, Martinsried, Germany). Each reaction was performed in duplicates and at least three independent determinations of each IC50 were made.
# Akt3 = Akt3 (Homo sapiens, UniProt Q9Y243); experiment: STK HTRF KinEASE activity-based assay (IC50)
# Sequence of Akt3 (Q9Y243 whole entry): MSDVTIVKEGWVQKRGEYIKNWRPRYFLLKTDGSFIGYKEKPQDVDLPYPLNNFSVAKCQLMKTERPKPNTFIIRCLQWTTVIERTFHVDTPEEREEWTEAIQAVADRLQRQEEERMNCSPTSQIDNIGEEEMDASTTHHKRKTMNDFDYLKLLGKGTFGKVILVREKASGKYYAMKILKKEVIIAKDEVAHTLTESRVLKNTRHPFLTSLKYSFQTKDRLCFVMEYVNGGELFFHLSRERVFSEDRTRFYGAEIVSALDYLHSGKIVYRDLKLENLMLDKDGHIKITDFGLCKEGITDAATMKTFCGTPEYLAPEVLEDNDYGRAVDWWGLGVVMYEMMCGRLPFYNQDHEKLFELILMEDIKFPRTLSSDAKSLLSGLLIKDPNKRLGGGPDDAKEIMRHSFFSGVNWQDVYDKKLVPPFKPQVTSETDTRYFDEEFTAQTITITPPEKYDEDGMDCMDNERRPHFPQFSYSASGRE
# [1] = Mus musculus, BaF3, parental cells, single replicates, read-out: CTG BaF3, individual determinations
# [2] = parental cells, single replicates, read-out: CTG BaF3, individual determinations
# [3] = Mus musculus, read-out: CTG BaF3myr-Akt1, Mean, mean of replicates
# [4] = Mus musculus, read-out: CTG BaF3myr-Akt1, individual determinations, single replicates
# [5] = read-out: CTG BaF3myr-Akt1, individual determinations, single replicates
# [6] = Mus musculus, read-out: CTG BaF3myr-Akt2, Mean, mean of replicates
# [7] = Mus musculus, read-out: CTG BaF3myr-Akt2, individual determinations, single replicates
# [8] = read-out: CTG BaF3myr-Akt2, individual determinations, single replicates
# [9] = Mus musculus, read-out: CTG BaF3myr-Akt3, Mean, mean of replicates
# [10] = read-out: CTG BaF3myr-Akt3, individual determinations, single replicates
# [11] = HTRF IC50 Akt1, Mean, mean of replicates
# [12] = HTRF IC50 Akt1, individual determinations, single replicates
# [13] = IC50 Akt1, HTRF, ATP at KM, 1 h preincubation
# [14] = HTRF IC50 Akt2, Mean, mean of replicates
# [15] = HTRF IC50 Akt2, individual determinations, single replicates
# [16] = IC50 Akt2, HTRF, ATP at KM, 1 h preincubation
# [17] = HTRF IC50 Akt3, Mean, mean of replicates
# [18] = HTRF IC50 Akt3, individual determinations, single replicates
# [19] = IC50 Akt3, HTRF, ATP at KM, 1 h preincubation
# [20] = Mus musculus, read-out: EC50 BaF3myr-Akt1, CTG
# [21] = Mus musculus, read-out: CTG BaF3myr-Akt3, individual determinations, single replicates
# [22] = read-out: HTRF IC50 Akt3, individual determinations, single replicates
# [23] = Mus musculus, BaF3, parental cells, mean of replicates, read-out: CTG BaF3, Mean
# [24] = Mus musculus, read-out: EC50 BaF3myr-Akt3, CTG
# [25] = Mus musculus, BaF3, CTG, parental BaF3 cell line, read-out: EC50 BaF3
Structure (SMILES),EC50 (parental Ba/F3 cells; [1]),EC50 (parental Ba/F3 cells; [2]),EC50 (Ba/F3^myr-Akt1 cells; [3]),EC50 (Ba/F3^myr-Akt1 cells; [4]),"Log ratio EC50 [Akt] / EC50 [Akt], Akt1 / Akt2 (Ba/F3^myr-Akt1 cells)",EC50 (Ba/F3^myr-Akt1 cells; [5]),EC50 (Ba/F3^myr-Akt2 cells; [6]),EC50 (Ba/F3^myr-Akt2 cells; [8]),EC50 (Ba/F3^myr-Akt3 cells; [9]),"Log ratio EC50 [Akt] / EC50 [Akt], Akt3 / Akt2 (Ba/F3^myr-Akt3 cells)",EC50 (Ba/F3^myr-Akt3 cells; [10]),IC50 (Akt1; [11]),IC50 (Akt1; [12]),IC50 (Akt1; [13]),"Log ratio IC50 [Akt] / IC50 [Akt], Akt1 / Akt2 (Akt1)",IC50 (Akt2; [15]),IC50 (Akt2; [16]),IC50 (Akt3; [17]),IC50 (Akt3; [18]),IC50 (Akt3; [19]),other results
C=CC(=O)Nc1ccc2[nH]c(=O)n(C3CCN(Cc4ccc(-c5ncc(Cc6cnn(C)c6)cc5-c5ccccc5)cc4)CC3)c2c1 [compound 12],17.5 µM,> 30 µM and 26.7 µM,8.29 µM,7.5 µM,0.43,10.1 µM and 7.32 µM,3.05 µM,2.1 µM and 3.52 µM,5.29 µM,-0.24,9.47 µM and 3.28 µM and 3.12 µM,1.28 µM,1.29 µM (2×) and 1.26 µM,1.28 ± 0.018 µM,0.71,0.27 µM and 0.352 µM and 0.233 µM,0.251 ± 0.018 µM,0.607 µM,0.64 µM and 0.477 µM and 0.703 µM,0.607 ± 0.095 µM,EC50 (Ba/F3^myr-Akt2 cells; [7]): 3.04 µM; IC50 (Akt2; [14]): 0.251 µM
C=CC(=O)Nc1ccc2[nH]c(=O)n(C3CCN(Cc4ccc(-c5ncc(C(=O)N6CCCC6)cc5-c5ccccc5)cc4)CC3)c2c1 [compound 8],17.3 µM,20.7 µM and > 30 µM,> 30 µM,> 30 µM,0.37,> 30 µM,12.8 µM,12.4 µM and 14.1 µM,26.5 µM,-0.32,28.3 µM and 27 µM,4.57 µM,4.34 µM and 4.53 µM and 4.82 µM,4.57 ± 0.197 µM,0.34,1.92 µM and 4.34 µM and 2.21 µM,2.07 ± 0.147 µM,> 20 µM,> 20 µM,> 20 µM,"EC50 (Ba/F3^myr-Akt1 cells; [20]): > 30 µM; EC50 (Ba/F3^myr-Akt2 cells; [7]): 11.8 µM; EC50 (Ba/F3^myr-Akt3 cells; [21]): 23.6 µM; drop in affinity of the amide-linked version (7 vs. 8) (Akt2; Akt2, biochemical IC50): 5 fold; IC50 (Akt3; [22]): > 20 µM"
C=CC(=O)Nc1ccc2[nH]c(=O)n(C3CCN(Cc4ccc(-c5ncc(C)cc5-c5ccccc5)cc4)CC3)c2c1 [compound 2],13.2 µM,10.3 µM and 10.9 µM,3.1 µM,2.81 µM,0.05,3.52 µM and 2.96 µM,2.79 µM,3.99 µM and 1.13 µM and 1.58 µM,> 30 µM,-0.46,> 30 µM,0.0218 µM,0.0221 µM and 0.0229 µM and 0.0205 µM,0.022 ± 0.002 µM,-0.83,0.156 µM and 0.149 µM and 0.144 µM,0.15 ± 0.005 µM,7.51 µM,7.41 µM and 4.78 µM and 10.2 µM and 5.33 µM and 9.79 µM,7.51 ± 1.82 µM,EC50 (parental Ba/F3 cells; [23]): 11.5 µM; EC50 (Ba/F3^myr-Akt3 cells; [21]): > 30 µM; EC50 (Ba/F3^myr-Akt3 cells; [24]): > 30 µM; IC50 (Akt2; [14]): 0.15 µM
C=CC(=O)Nc1ccc2[nH]c(=O)n(C3CCN(Cc4ccc(-c5ncc(C(=O)Nc6ccccn6)cc5-c5ccccc5)cc4)CC3)c2c1 [compound 23],> 30 µM,> 30 µM,14.6 µM,–,0.72,8.09 µM and 10.5 µM and 25.3 µM,2.76 µM,4.03 µM and 2.63 µM and 1.62 µM,17.1 µM,-0.79,9.71 µM and 24.4 µM and 23.9 µM,0.13 µM,0.128 µM and 0.117 µM and 0.144 µM,0.13 ± 0.011 µM,-0.07,0.117 µM and 0.167 µM and 0.17 µM,0.151 ± 0.025 µM,6.3 µM,3.66 µM and 8.18 µM and 7.06 µM,6.3 ± 1.92 µM,EC50 (parental Ba/F3 cells; [25]): > 30 µM; EC50 (parental Ba/F3 cells; [23]): > 30 µM; IC50 (Akt2; [14]): 0.152 µM
C=CC(=O)Nc1ccc2[nH]c(=O)n(C3CCN(Cc4ccc(-c5ncc(Cc6cccc(N)c6)cc5-c5ccccc5)cc4)CC3)c2c1 [compound 17],> 30 µM,> 30 µM,> 30 µM,> 30 µM,0.90,> 30 µM,3.75 µM,4.24 µM and 2.81 µM,22 µM,-0.77,17.8 µM and 24.3 µM,2.85 µM,2.55 µM and 3.9 µM and 2.12 µM,2.85 ± 0.758 µM,1.33,0.136 µM and 0.142 µM and 0.121 µM,0.133 ± 0.009 µM,2.11 µM,1.48 µM and 2.41 µM and 2.43 µM,2.11 ± 0.441 µM,EC50 (parental Ba/F3 cells; [25]): > 30 µM; EC50 (parental Ba/F3 cells; [23]): > 30 µM; EC50 (Ba/F3^myr-Akt1 cells; [20]): > 30 µM; EC50 (Ba/F3^myr-Akt2 cells; [7]): 3.2 µM; EC50 (Ba/F3^myr-Akt3 cells; [21]): 21.7 µM; IC50 (Akt2; [14]): 0.133 µM
C=CC(=O)Nc1ccc2[nH]c(=O)n(C3CCN(Cc4ccc(-c5ncc(C(=O)OC)cc5-c5ccccc5)cc4)CC3)c2c1 [compound 5],18.7 µM,12.7 µM and 17.6 µM,4.92 µM,5.83 µM,0.26,4.17 µM and 4.75 µM,2.71 µM,3.75 µM and 1.35 µM and 1.68 µM,7.65 µM,-0.45,7.85 µM and 7.37 µM,0.0355 µM,0.038 µM and 0.0373 µM and 0.0312 µM,0.035 ± 0.004 µM,-0.52,0.119 µM and 0.116 µM and 0.114 µM,0.116 ± 0.002 µM,3.4 µM,3.96 µM and 3.22 µM and 3.01 µM,3.4 ± 0.406 µM,EC50 (parental Ba/F3 cells; [23]): 16.3 µM; EC50 (Ba/F3^myr-Akt3 cells; [21]): 7.73 µM; IC50 (Akt2; [14]): 0.116 µM
"NC1(c2ccc(-c3nc4ccn5c(=O)[nH]nc5c4cc3-c3ccccc3)cc2)CCC1 [MK-2206, reference compound]",6.96 µM,5.09 µM and 9.92 µM,1.12 µM,1.16 µM,–,0.987 µM and 1.22 µM,1.34 µM,1.97 µM and 0.931 µM and 1.12 µM,5.73 µM,–,5.57 µM,–,–,–,–,–,–,–,–,–,EC50 (parental Ba/F3 cells; [23]): 7.39 µM; EC50 (Ba/F3^myr-Akt3 cells; [21]): 5.9 µM
C=CC(=O)Nc1ccc2[nH]c(=O)n(C3CCN(Cc4ccc(-c5ncc(CNCC(C)C)cc5-c5ccccc5)cc4)CC3)c2c1 [compound 9],> 30 µM,28.5 µM and > 30 µM,> 30 µM,> 30 µM,0.34,> 30 µM,13.6 µM,12.5 µM,14.1 µM,-0.02,18.6 µM and 9.33 µM and 12.7 µM,5.93 µM,6.84 µM and 5.56 µM and 5.38 µM,5.93 ± 0.793 µM,0.15,4.62 µM and 3.65 µM and 4.37 µM,4.21 ± 0.412 µM,8.37 µM,6.9 µM and 10.4 µM and 7.86 µM,8.37 ± 1.78 µM,EC50 (Ba/F3^myr-Akt1 cells; [20]): > 30 µM; EC50 (Ba/F3^myr-Akt2 cells; [7]): 17.2 µM; EC50 (Ba/F3^myr-Akt3 cells; [21]): 15.9 µM; IC50 (Akt2; [14]): 4.21 µM
C=CC(=O)Nc1ccc2[nH]c(=O)n(C3CCN(Cc4ccc(-c5ncc(CN6CCCC6)cc5-c5ccccc5)cc4)CC3)c2c1 [compound 7],6.97 µM,8.01 µM and 10.4 µM,4.71 µM,4.23 µM,0.42,4.27 µM and 4.14 µM and 6.2 µM,1.78 µM,1.58 µM and 3 µM and 1.35 µM and 1.19 µM,2.51 µM,-0.15,1.92 µM and 3.02 µM and 3.04 µM,7.09 µM,10 µM and 10.5 µM and 4.2 µM and 7.74 µM and 8.28 µM and 1.75 µM,7.09 ± 3.44 µM,1.17,0.535 µM and 0.351 µM and 0.552 µM,0.479 ± 0.091 µM,> 20 µM,> 20 µM,> 20 µM,EC50 (parental Ba/F3 cells; [23]): 8.46 µM; EC50 (Ba/F3^myr-Akt3 cells; [21]): 2.06 µM; IC50 (Akt2; [14]): 0.479 µM; IC50 (Akt3; [22]): > 20 µM
C=CC(=O)Nc1ccc2[nH]c(=O)n(C3CCN(Cc4ccc(-c5ncc(Cc6cccc(O)c6)cc5-c5ccccc5)cc4)CC3)c2c1 [compound 16],> 30 µM,> 30 µM,> 30 µM,> 30 µM,0.07,> 30 µM,–,16.5 µM and > 30 µM,> 30 µM,-0.07,> 30 µM,9.48 µM,10.2 µM and 9 µM and 9.2 µM,9.48 ± 0.665 µM,1.14,0.766 µM and 1.08 µM and 0.599 µM,0.682 ± 0.083 µM,5.34 µM,4.32 µM and 3.56 µM and 8.14 µM,5.34 ± 2.01 µM,EC50 (parental Ba/F3 cells; [25]): > 30 µM; EC50 (parental Ba/F3 cells; [23]): > 30 µM; EC50 BaF3myr-Akt1 (Ba/F3^myr-Akt1 cells; CTG): generally inactive; EC50 (Ba/F3^myr-Akt1 cells; [20]): > 30 µM; EC50 (Ba/F3^myr-Akt2 cells; [7]): > 30 µM; EC50 BaF3myr-Akt3 (Ba/F3^myr-Akt3 cells; CTG): generally inactive; EC50 (Ba/F3^myr-Akt3 cells; [21]): > 30 µM; EC50 (Ba/F3^myr-Akt3 cells; [24]): > 30 µM; IC50 (Akt2; [14]): 0.682 µM
